Laboratory results: US20160222014A1, “COMPOUNDS FOR REGULATING FAK AND/OR SRC PATHWAYS” (ASANA BIOSCIENCES, LLC, priority 2013, published 2016)
pIC50: −log10 of the molar value.

How the values were obtained:
[1] = biological target: T1, Recombinant Src enzyme (Homo sapiens, UniProt P12931); experiment: Src HTRF assay; format: biochemical
T1 construct: purchased Millipore 14-326; host or cells: Sf21 insect cells
Procedure, shortened: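 Run as for the FAK HTRF assay (same buffer, supplements, compound preparation and procedure), with dasatinib included. Reaction contained 0.5 μM biotin-tagged Tyk2 synthetic peptide, 5 nM Src made in Sf21 cells, and a pH7.4-buffer-prepared component at 10 μM final.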

[2] = biological target: T2, AURKB (Aurora B) enzyme (Homo sapiens, UniProt Q96GD4); experiment: Aurora B HTRF assay; format: biochemical; conditions: read-out: AuroraB IC50
T2 construct: purchased Invitrogen PVR 130
Procedure, shortened: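 Enzyme (5 nM final) and ULight-labelled PLK Ser137 peptide (50 nM) reacted 1 h at room temperature; a 30 μM final component was also present. Detection used EDTA-containing buffer with europium anti-phospho-PLK(Ser137) antibody at 2 nM, 1 h, then time-resolved FRET readout.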

T1 sequence (P12931 whole entry): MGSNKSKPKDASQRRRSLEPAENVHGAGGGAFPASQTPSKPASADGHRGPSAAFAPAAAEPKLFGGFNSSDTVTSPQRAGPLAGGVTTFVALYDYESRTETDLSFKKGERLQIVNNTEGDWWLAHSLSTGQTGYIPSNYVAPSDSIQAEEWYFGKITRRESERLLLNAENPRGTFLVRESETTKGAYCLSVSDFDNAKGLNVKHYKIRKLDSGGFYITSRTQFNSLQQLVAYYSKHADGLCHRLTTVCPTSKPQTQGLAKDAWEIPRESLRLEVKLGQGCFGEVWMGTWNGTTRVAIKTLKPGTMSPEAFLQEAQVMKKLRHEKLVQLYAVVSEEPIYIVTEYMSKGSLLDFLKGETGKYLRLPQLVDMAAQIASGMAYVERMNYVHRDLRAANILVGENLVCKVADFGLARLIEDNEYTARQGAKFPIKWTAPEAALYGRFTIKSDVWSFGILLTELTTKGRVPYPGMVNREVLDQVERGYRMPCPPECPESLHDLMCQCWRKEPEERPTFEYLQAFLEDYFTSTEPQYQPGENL
T2 sequence (Q96GD4 whole entry): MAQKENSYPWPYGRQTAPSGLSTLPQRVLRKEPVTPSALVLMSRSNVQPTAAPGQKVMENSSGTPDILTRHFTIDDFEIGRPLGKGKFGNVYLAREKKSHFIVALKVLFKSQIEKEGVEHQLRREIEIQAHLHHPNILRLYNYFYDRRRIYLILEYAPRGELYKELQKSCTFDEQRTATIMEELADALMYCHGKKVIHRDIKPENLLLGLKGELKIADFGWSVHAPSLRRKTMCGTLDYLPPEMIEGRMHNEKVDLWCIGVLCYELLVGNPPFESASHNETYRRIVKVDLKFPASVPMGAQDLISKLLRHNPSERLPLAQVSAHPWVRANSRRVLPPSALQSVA

pIC50 [1] | pIC50 [2] | SMILES
> 7.70 |  | O=C1CCc2cc(Nc3ncc4cnn(Cc5ccccc5OC(F)F)c4n3)ccc2N1 [Example 21]
 | < 6.00 | FC(F)Oc1ccccc1Cn1ccc2cnc(Nc3ccc4ncsc4c3)nc21 [Example 36]
 | < 6.00 | CC(=O)Nc1cccc(Nc2cc3c(cn2)cnn3Cc2ccccc2OC(F)F)c1 [Example 64]
 | < 6.00 | FC(F)Oc1ccccc1Cn1ncc2cnc(Nc3ccc4ncsc4c3)cc21 [Example 82]
< 6.00 |  | CN(c1ncccc1Cn1ncc2cnc(Nc3ccc4[nH]c(=O)[nH]c4c3)cc21)S(C)(=O)=O [Example 142]
> 7.70 | > 7.70 | O=C1CCc2cc(Nc3ncc4ccn(S(=O)(=O)c5cccc6cccnc56)c4n3)ccc2N1 [Example 169]
 | > 7.70 | CN(c1ncccc1Cn1ccc2cnc(Nc3ccc(NCCO)cc3)nc21)S(C)(=O)=O [Example 201]
> 7.70 |  | CN(c1ncccc1Cn1ncc2cnc(Nc3ccc4c(c3)CCC(=O)N4)nc21)S(C)(=O)=O [Example 202]
> 7.70 | > 7.70 | O=C1CCc2cc(Nc3ncc4ccn(Cc5cccnc5N5CCCS5(=O)=O)c4n3)ccc2N1 [Example 216]
 | > 7.70 | O=S(=O)(c1cccc2nsnc12)n1ccc2cnc(Nc3ccc(N4CCNCC4)cc3)nc21 [Example 253]
 | > 7.70 | Cn1cc(Nc2ncc3ccn(S(=O)(=O)c4cccc5cccnc45)c3n2)cn1 [Example 318]
< 6.00 | > 7.70 | COc1cc(N2CCNCC2)ccc1Nc1cc2c(ccn2S(=O)(=O)c2cccc3cccnc23)cn1 [Example 330, N-(2-Methoxy-4-(piperazin-1-yl)phenyl)-1-(quinolin-8-ylsulfonyl)-1H-pyrrolo[3,2-c]pyridin-6-amine]
> 7.70 | > 7.70 | Cc1cc(Nc2ncc3cnn(S(=O)(=O)c4cccc5cccnc45)c3n2)ccc1N1CCNCC1 [Example 332]
 | > 7.70 | COc1ccccc1S(=O)(=O)n1ncc2cnc(Nc3ccc(N4CCNCC4)cc3)nc21 [Example 335]
